# Measured values reported in patent US12208108B2, “Drug targets of delayed aging and human brain diseases” (Texas Tech University System, priority 2016, dated 2025).
# Key:
# SHSY5Y cells [1] = test: Lipid peroxidation assay (HNE); assay type: cell-based, Human
# Procedure: Lipid peroxidation assay. Lipid peroxidates are unstable indicators of oxidative stress in neurons. 4-hydroxy-2-nonenol (HNE) is the final product of lipid peroxidation that was measured in the cell lysates from SHSY5Y cells of control and experimental treatments (n=4), using an HNE-His ELISA Kit (Cell BioLabs, Inc., San Diego, Calif.) as described in Manczak et al..
# SHSY5Y cells [2] = test: Cytochrome oxidase activity; assay type: cell-based, Human
# Procedure: Cytochrome oxidase activity. Cytochrome oxidase activity was measured in the mitochondria isolated from SHSY5Y cells of control and experimental treatments (n=4), as described in Manczak et al.^33. Enzyme activity was assayed spectrophotometrically using a Sigma Kit (Sigma-Aldrich) following manufacturer's instructions.
# [3] = DDQ 250 nM 24 hrs vs untreated cells
smiles,measurement,setting,value
"CCOP(=O)(OCC)C(NCCc1ccc(O)c(O)c1)c1ccnc2ccccc12 (centres unmarked) [DDQ, diethyl(3,4-dihydroxyphenethylamine)(quinolin-4-yl)methylphosphonate]",lipid peroxidation (4-hydroxy-nonenol) levels,"SHSY5Y cells [1]; Aβ + DDQ (Aβ1-42 6 hrs, then DDQ 24 hrs) vs cells incubated with Aβ alone",significantly reduced levels
same,lipid peroxidation (4-hydroxy-nonenol) levels,SHSY5Y cells [1]; [3],significantly decreased levels
same,lipid peroxidation (4-hydroxy-nonenol) levels,"SHSY5Y cells [1]; DDQ + Aβ (DDQ 24 hrs, then Aβ1-42 6 hrs) vs cells incubated with Aβ alone",significantly reduced levels
same,cytochrome oxidase activity,"SHSY5Y cells [2]; Aβ + DDQ (Aβ1-42 20 μM 6 hrs, then DDQ 24 hrs) vs untreated cells",unchanged
same,cytochrome oxidase activity,"SHSY5Y cells [2]; Aβ + DDQ (Aβ1-42 6 hrs, then DDQ 24 hrs) vs Aβ incubated cells",increased
same,cytochrome oxidase activity,SHSY5Y cells [2]; [3],significantly increased levels
same,cytochrome oxidase activity,"SHSY5Y cells [2]; DDQ + Aβ (DDQ 24 hrs, then Aβ1-42 6 hrs) vs Aβ incubated cells",increased
same,cytochrome oxidase activity,"SHSY5Y cells [2]; DDQ + Aβ (DDQ 24 hrs, then Aβ1-42 6 hrs) vs untreated cells",unchanged
